Structures can show the parent of a compound that is named as a salt.

For series [1], the system named is Sp1 cognate binding site DNA (dsOLIGOsp). As to the kind of experiment: 1D NMR titration of the Sp1 cognate binding site. The settings on record: FIG. 3. From the text:
FIG. 3: 1D 1H NMR spectra of free DNA, free P4N and 1:1 molar ratio DNA:P4N. The resonances with the largest chemical shift perturbation are indicated
The titration of the Sp1 cognate binding site with P4N was further studied by 1D NMR (FIG. 3). […] Changes in the chemical shifts and the line-widths of both the DNA and the drug indicate structural perturbations of the DNA upon titration with P4N. […] This is reflected in the split of the well resolved resonances of the carbon-nitrogen ring CH2 protons (which lie in an area of the spectrum that is free of DNA peaks). As shown on both FIG. 3 and FIG. 4 the largest perturbations of the P4N chemical shifts induced upon binding are those of the CH3 protons, aromatic protons and the carbon-nitrogen ring CH2 protons. […] Binding of Sp1 to dsOLIGOsp and binding of P4N to dsOLIGOsp are both reversible as shown in a competitive band-shift analysis (FIG. 6).

The subject of series [2] is HIV Tat-regulated transactivation. As to the kind of experiment: cells. The settings on record: for Inhibition (%) of HIV Tat-regulated Transactivation in COS Cells: average of three experiments. The format is cell-based. Here is the method: The COS cells were co-transfected with a Tat-producing plasmid and a plasmid containing the HIV LTR linked to the SeAP reporter gene. Transfected cells were treated with various concentrations of 5b P4N. After 48 h, aliquots of media were removed and analysis of SeAP activity was performed. The percent inhibition of SeAP activity by 5b P4N ? was calculated in comparison with the percent of growth inhibition of untransfected COS cells by P4N ?
The medium used for dilution of compounds and maintenance of cultures during the assay was the same as described above. Cultures were maintained in disposable tissue culture labware at 37° C. in a humidified atmosphere of CO2 (5.0%) in air. Compounds were dissolved as stock solutions in water or dimethyl sulfoxide (DMSO) at the concentration of 10 mM. The stock solutions were diluted with H2O (5a-d) or DMSO (6a,b and 7) and dilute by medium to the desired concentration by a 30-s vortex just before addition into the cell culture. Triplicate cell samples were seeded at density of ˜1.5×10^4 cell per well in Libro 24-well flat-bottom culture dishes (17-mm diameter), which were incubated for 24 h until they reached 50% confluence. The cells were cotransfected by the calcium phosphate procedure with DNA from plasmids pBC12/CMV/t2 (coding for Tat function, 0.20 μg/well) and pBC12/HIV/SeAP (0.40 μg/well). Cells and DNAs were kept in contact for 6.0 h; then the medium was aspirated and replaced by 500 μL of medium containing the test compound. The compound-treated cells were then incubated for additional 48 h. At the end of incubation, an aliquot of cell culture medium was removed and SeAP activities were analyzed by spectrametric method.^20 The sample of culture medium were heated at 65° C. for 5.0 min to inactivate endogenous phosphatases selectively (SeAP is thermal stable). The buffer solution of 2×SeAP (100 μL, 1.0 M diethanolamine, pH 9.8; 0.50 mM MgCl2; 10 mM L-homoarginine) was added to the culture medium sample (100 μL) in a 96-well flat-bottom culture dish (Corning). Then, the substrate solution ([…], 120 mM, p-nitrophenyl phosphate dissolved in 1×SeAP buffer) was dispensed into each well containing the reaction mixture. The absorbance at wavelength 405 nm specific for the hydrolysis product was read at 2.5 min intervals at 37° C. over the course of 60 min on an EL340i microplate reader (Bio-tek Instruments) with 5 s automatic shaking before each reading.
Two plasmid constructs^19 were used to test the effect of synthesized NDGA derivatives on Tat-regulated HIV transactivation as described previously.^12,13,19 The plasmid constructs included a cytomegalovirus (CMV) promoter driven tat gene and SP1 regulated HIV LTR promoter driven reporter gene (i.e., SeAP). A standard SeAP assay in the absence of drug was initially run to find out efficiency of transfection.

The next series relates to COS cells. As to the kind of experiment: Growth inhibition of untransfected COS cells. The format is cell-based. As to conditions: ≦1 μM, FIG. 9. Here is the method:
FIG. 9: Inhibition of HIV Tat-Regulated transactivation by Compound 5b P4N. The COS cells were co-transfected with a Tat-producing plasmid and a plasmid containing the HIV LTR linked to the SeAP reporter gene. Transfected cells were treated with various concentrations of 5b P4N. After 48 h, aliquots of media were removed and analysis of SeAP activity was performed. The percent inhibition of SeAP activity by 5b P4N ? was calculated in comparison with the percent of growth inhibition of untransfected COS cells by P4N ?

Series [3] concerns colon cancer cell line HT29. As to the kind of experiment: MTT-based cytotoxicity / proliferation assay, HT29. Type of series: cell-based, human. Here is the method: The cytotoxicity of P4N against Vero cells and human cancer cells HEP3B, HT29 and MCF7 was analyzed using an MTT [3-(4,5-dimethylthiazol-2-yl)-2,5-diphenyltetrazolium bromide]-based assay (Sigma). The absorbance of OD570 was a measurement of formazon crystals solubilized in DMSO from metabolically active cells. Procedures were discussed in Huang R C C, et al. in Antiviral Res 58, 57-64 2003.^10
We have previously shown that M4N arrests tumor cells growth at G2-M phase of the cell cycle by reducing the level of Cdc2 protein and kinase activity,^17,18 and induces apoptosis by suppressing survivin gene expression and protein stability and activating the mitochondrial apoptosis pathway.^17 M4N is able to reverse the multidrug resistance by inhibiting the Sp1-regulated MDR1 gene expression and preventing the synthesis of p-glycoprotein (Pgp).^24 To investigate the effect of water soluble NDGA derivative P4N on growth of the transformed cells, four cell lines, Vero cell (African green monkey kidney cells), human liver cancer line Hep3B, colon cancer cell line HT29, and human breast cancer line MCF-7 were selected for testing. The Vero cell line is aneuploid.

In a further series the test system is HSV-2. As to the kind of experiment: Efficacy against HSV-2 in a mouse vaginal model. The format is in vivo. The settings on record: for Toxicity in animals: female mice treated locally with 10 mM. The method, then:
The efficacies of P4N against HSV-2 in a mouse vaginal model system have been examined. Progestin treated female CF-1 mice (10 per group) were infected with HSV-2 in the absence or presence of P4N (in PBS). At the end of three days, the vaginal lavages were collected from the washings of the vaginal regions. The status of the vaginal HSV-2 infection and replication were examined by their cytopathic effects on cultured human foreskin fibroblast cells. Monitoring and scoring were carried out by three persons independently. […] At 10 mM concentration only 2 of 10 mice were weakly infected.

With `C[C@H](Cc1ccc(OCCN2CCCCC2)c(OCCN2CCCCC2)c1)[C@@H](C)Cc1ccc(OCCN2CCCCC2)c(OCCN2CCCCC2)c1` [Compound 5b, meso-2,3-Dimethyl-1,4-bis(3,4-[2-(piperidino)ethoxyphenyl])butane Tetrakishydrochloride Salt], in series [1], the “Binding to the DNA (1D NMR titration)” value is “micro-molar range”. Besides, the “Inhibition (%) of HIV Tat-regulated Transactivation in COS Cells” value in series [2] (0.10 μM) was 8.7%; in series [2] (0.25 μM), 4.3%; in series [2] (0.50 μM), 29.0%; in series [2] (1.0 μM) it was 56.8%; in series [2] (2.5 μM) it was 90.6%; in series [2] (5.0 μM), 97.0%. Also, the “Inhibition (%) of HIV Tat-regulated Transactivation in COS Cells” value was 99.8% in series [2] (10 μM); 100% in series [2] (20 μM); 100% in series [2] (40 μM); 100% in series [2] (80 μM); 97.7% in series [2] (100 μM). In addition, the IC50 in series [2] (COS cells, SeAP, mean of triplicate determinations, read-out: IC50, HIV Tat-regulated transactivation) is 880 nM; in series [3] (48 hrs, 37° C., read-out: IC50, proliferation of HT-29), 800 nM. Also, the “HIV transactivation at the concentration without effect on cos cell growth” value in series [2] (≦1 μM, FIG. 9) is on record as “fully inhibited”. Besides, in the series with COS cells, the “Effect on the growth of the cos cells” value is reported as “no effect”. Besides, in series [3] (HT29, FIG. 11), the “Concentration that effectively eliminates growth of tumor cells” value was less than 5 µM. Further, the “Mice weakly infected with HSV-2” value in the series on HSV-2 (10 mM P4N in PBS, local, female CF-1 mice, 10 per group, day 3 vaginal lavage) was 2 of 10. In addition, the “Average scale of vaginal HSV-2 infection (cytopathic effect score)” value with HSV-2 (10 mM P4N, 2.43 in the absence of P4N) was found to be 0.19. For the same compound, the Toxicity in animals result in the series on HSV-2 is given as “no apparent sign of toxicity”; with HSV-2 (listed as P4N), “little or no toxicity”.

The values are drawn from patent US8420692B1, “Heterocyclic and carbonate derivatives of NDGA and their use as new anti-HIV and anti-cancer agents” (The Johns Hopkins University, priority 2006, dated 2013).
